Assay results as given in publication PMC11124057 (Molecules, 2024).
Read-outs that look alike come from different tables or passages of the source.

Key:
[1] = not given; remark: listed apart in the source

## CC(C)Cc1ccc(C(C)C(=O)O)cc1 (racemic) [ibuprofen, (RS)-2-(4-(2-methylpropyl)phenyl)propanoic acid]
Neat DES betaine-DEG 1:1, 25°C
  Mole fraction solubility: 0.223±0.0026 mole fraction
Neat DES betaine-GLY 1:2, 25°C, listed as IP
  Mole fraction solubility: 0.297 mole fraction
Neat DES betaine-P2D 1:1, 25°C
  Mole fraction solubility: 0.1561±0.0027 mole fraction
Neat DES betaine-P2D 1:2, 25°C
  Mole fraction solubility: 0.1919±0.0023 mole fraction
Neat DES betaine-P2D 1:4, 25°C
  Mole fraction solubility: 0.2062±0.0014 mole fraction
Neat DES betaine-TEG 1:2, 25°C, listed as IP
  Mole fraction solubility: 0.321 mole fraction
Neat DES choline chloride-B3D 1:1, 25°C
  Mole fraction solubility: 0.1584±0.0030 mole fraction
Neat DES choline chloride-B3D 1:4, 25°C
  Mole fraction solubility: 0.1899±0.0025 mole fraction
Neat DES choline chloride-ETG 1:1, 25°C
  Mole fraction solubility: 0.2167±0.0034 mole fraction
Neat DES choline chloride-ETG 1:2, 25°C
  Mole fraction solubility: 0.3072±0.0025 mole fraction
Neat DES choline chloride-ETG 1:4, 25°C
  Mole fraction solubility: 0.2905±0.0061 mole fraction
Neat DES choline chloride-GLY 1:1, 25°C
  Mole fraction solubility: 0.2793±0.0019 mole fraction
Neat DES choline chloride-GLY 1:2, 25°C
  Mole fraction solubility: 0.3495±0.0031 mole fraction
Neat DES choline chloride-GLY 1:2, 25°C, listed as IP
  Mole fraction solubility: 0.349 mole fraction
Neat DES choline chloride-GLY 1:4, 25°C
  Mole fraction solubility: 0.3187±0.0038 mole fraction
Neat DES choline chloride-P2D 1:1, 25°C
  Mole fraction solubility: 0.1611±0.0024 mole fraction
Neat DES choline chloride-P2D 1:2, 25°C
  Mole fraction solubility: 0.2068±0.0046 mole fraction
Neat DES choline chloride-TEG 1:2, 25°C, listed as IP
  Mole fraction solubility: 0.353 mole fraction
[1]; DES betaine + TEG 1:2, x*DES 1.0, 25°C
  Mole fraction solubility: 0.3209±0.0024 mole fraction
[1]; DES betaine + TEG 1:2, x*DES 1.0, 30°C
  Mole fraction solubility: 0.3830±0.0062 mole fraction
[1]; DES betaine + TEG 1:2, x*DES 1.0, 35°C
  Mole fraction solubility: 0.4548±0.0069 mole fraction
[1]; DES betaine + TEG 1:2, x*DES 1.0, 40°C
  Mole fraction solubility: 0.5444±0.0067 mole fraction
[1]; DES choline chloride + TEG 1:2, x*DES 1.0, 25°C
  Mole fraction solubility: 0.3528±0.0029 mole fraction
[1]; DES choline chloride + TEG 1:2, x*DES 1.0, 30°C
  Mole fraction solubility: 0.4366±0.0077 mole fraction
[1]; DES choline chloride + TEG 1:2, x*DES 1.0, 35°C
  Mole fraction solubility: 0.5483±0.0115 mole fraction
[1]; DES choline chloride + TEG 1:2, x*DES 1.0, 40°C
  Mole fraction solubility: 0.6784±0.0040 mole fraction
[1]; aqueous DES betaine + TEG 1:2, x*DES 0.1, 25°C
  Mole fraction solubility: 0.0396±0.0003 mole fraction
[1]; aqueous DES betaine + TEG 1:2, x*DES 0.1, 30°C
  Mole fraction solubility: 0.0475±0.0007 mole fraction
[1]; aqueous DES betaine + TEG 1:2, x*DES 0.1, 35°C
  Mole fraction solubility: 0.0561±0.0003 mole fraction
[1]; aqueous DES betaine + TEG 1:2, x*DES 0.1, 40°C
  Mole fraction solubility: 0.0688±0.0013 mole fraction
[1]; aqueous DES betaine + TEG 1:2, x*DES 0.2, 25°C
  Mole fraction solubility: 0.0911±0.0020 mole fraction
[1]; aqueous DES betaine + TEG 1:2, x*DES 0.2, 30°C
  Mole fraction solubility: 0.1077±0.0009 mole fraction
[1]; aqueous DES betaine + TEG 1:2, x*DES 0.2, 35°C
  Mole fraction solubility: 0.1301±0.0019 mole fraction
[1]; aqueous DES betaine + TEG 1:2, x*DES 0.2, 40°C
  Mole fraction solubility: 0.1547±0.0024 mole fraction
[1]; aqueous DES betaine + TEG 1:2, x*DES 0.3, 25°C
  Mole fraction solubility: 0.1423±0.0035 mole fraction
[1]; aqueous DES betaine + TEG 1:2, x*DES 0.3, 30°C
  Mole fraction solubility: 0.1670±0.0021 mole fraction
[1]; aqueous DES betaine + TEG 1:2, x*DES 0.3, 35°C
  Mole fraction solubility: 0.2005±0.0018 mole fraction
[1]; aqueous DES betaine + TEG 1:2, x*DES 0.3, 40°C
  Mole fraction solubility: 0.2400±0.0050 mole fraction
[1]; aqueous DES betaine + TEG 1:2, x*DES 0.4, 25°C
  Mole fraction solubility: 0.1950±0.0030 mole fraction
[1]; aqueous DES betaine + TEG 1:2, x*DES 0.4, 30°C
  Mole fraction solubility: 0.2288±0.0034 mole fraction
[1]; aqueous DES betaine + TEG 1:2, x*DES 0.4, 35°C
  Mole fraction solubility: 0.2772±0.0045 mole fraction
[1]; aqueous DES betaine + TEG 1:2, x*DES 0.4, 40°C
  Mole fraction solubility: 0.3302±0.0064 mole fraction
[1]; aqueous DES betaine + TEG 1:2, x*DES 0.5, 25°C
  Mole fraction solubility: 0.2459±0.0052 mole fraction
[1]; aqueous DES betaine + TEG 1:2, x*DES 0.5, 30°C
  Mole fraction solubility: 0.2949±0.0045 mole fraction
[1]; aqueous DES betaine + TEG 1:2, x*DES 0.5, 35°C
  Mole fraction solubility: 0.3502±0.0073 mole fraction
[1]; aqueous DES betaine + TEG 1:2, x*DES 0.5, 40°C
  Mole fraction solubility: 0.4150±0.0056 mole fraction
[1]; aqueous DES betaine + TEG 1:2, x*DES 0.6, 25°C
  Mole fraction solubility: 0.2941±0.0043 mole fraction
[1]; aqueous DES betaine + TEG 1:2, x*DES 0.6, 30°C
  Mole fraction solubility: 0.3535±0.0052 mole fraction
[1]; aqueous DES betaine + TEG 1:2, x*DES 0.6, 35°C
  Mole fraction solubility: 0.4213±0.0098 mole fraction
[1]; aqueous DES betaine + TEG 1:2, x*DES 0.6, 40°C
  Mole fraction solubility: 0.5066±0.0066 mole fraction
[1]; aqueous DES betaine + TEG 1:2, x*DES 0.7, 25°C
  Mole fraction solubility: 0.3409±0.0049 mole fraction
[1]; aqueous DES betaine + TEG 1:2, x*DES 0.7, 30°C
  Mole fraction solubility: 0.4057±0.0067 mole fraction
[1]; aqueous DES betaine + TEG 1:2, x*DES 0.7, 35°C
  Mole fraction solubility: 0.4779±0.0128 mole fraction
[1]; aqueous DES betaine + TEG 1:2, x*DES 0.7, 40°C
  Mole fraction solubility: 0.5883±0.0063 mole fraction
[1]; aqueous DES betaine + TEG 1:2, x*DES 0.8, 25°C
  Mole fraction solubility: 0.3800±0.0058 mole fraction
[1]; aqueous DES betaine + TEG 1:2, x*DES 0.8, 25°C, listed as IP
  Mole fraction solubility: 0.380 mole fraction
[1]; aqueous DES betaine + TEG 1:2, x*DES 0.8, 30°C
  Mole fraction solubility: 0.4493±0.0062 mole fraction
[1]; aqueous DES betaine + TEG 1:2, x*DES 0.8, 35°C
  Mole fraction solubility: 0.5335±0.0056 mole fraction
[1]; aqueous DES betaine + TEG 1:2, x*DES 0.8, 40°C
  Mole fraction solubility: 0.6375±0.0137 mole fraction
[1]; aqueous DES betaine + TEG 1:2, x*DES 0.9, 25°C
  Mole fraction solubility: 0.3582±0.0053 mole fraction
[1]; aqueous DES betaine + TEG 1:2, x*DES 0.9, 30°C
  Mole fraction solubility: 0.4279±0.0034 mole fraction
[1]; aqueous DES betaine + TEG 1:2, x*DES 0.9, 35°C
  Mole fraction solubility: 0.5040±0.0073 mole fraction
[1]; aqueous DES betaine + TEG 1:2, x*DES 0.9, 40°C
  Mole fraction solubility: 0.6012±0.0090 mole fraction
[1]; aqueous DES choline chloride + TEG 1:2, x*DES 0.1, 25°C
  Mole fraction solubility: 0.0211±0.0003 mole fraction
[1]; aqueous DES choline chloride + TEG 1:2, x*DES 0.1, 30°C
  Mole fraction solubility: 0.0257±0.0001 mole fraction
[1]; aqueous DES choline chloride + TEG 1:2, x*DES 0.1, 35°C
  Mole fraction solubility: 0.0318±0.0006 mole fraction
[1]; aqueous DES choline chloride + TEG 1:2, x*DES 0.1, 40°C
  Mole fraction solubility: 0.0386±0.0006 mole fraction
[1]; aqueous DES choline chloride + TEG 1:2, x*DES 0.2, 25°C
  Mole fraction solubility: 0.0641±0.0005 mole fraction
[1]; aqueous DES choline chloride + TEG 1:2, x*DES 0.2, 30°C
  Mole fraction solubility: 0.0783±0.0007 mole fraction
[1]; aqueous DES choline chloride + TEG 1:2, x*DES 0.2, 35°C
  Mole fraction solubility: 0.0973±0.0012 mole fraction
[1]; aqueous DES choline chloride + TEG 1:2, x*DES 0.2, 40°C
  Mole fraction solubility: 0.1210±0.0019 mole fraction
[1]; aqueous DES choline chloride + TEG 1:2, x*DES 0.3, 25°C
  Mole fraction solubility: 0.1227±0.0023 mole fraction
[1]; aqueous DES choline chloride + TEG 1:2, x*DES 0.3, 30°C
  Mole fraction solubility: 0.1520±0.0019 mole fraction
[1]; aqueous DES choline chloride + TEG 1:2, x*DES 0.3, 35°C
  Mole fraction solubility: 0.1876±0.0024 mole fraction
[1]; aqueous DES choline chloride + TEG 1:2, x*DES 0.3, 40°C
  Mole fraction solubility: 0.2338±0.0048 mole fraction
[1]; aqueous DES choline chloride + TEG 1:2, x*DES 0.4, 25°C
  Mole fraction solubility: 0.1961±0.0021 mole fraction
[1]; aqueous DES choline chloride + TEG 1:2, x*DES 0.4, 30°C
  Mole fraction solubility: 0.2424±0.0032 mole fraction
[1]; aqueous DES choline chloride + TEG 1:2, x*DES 0.4, 35°C
  Mole fraction solubility: 0.2953±0.0062 mole fraction
[1]; aqueous DES choline chloride + TEG 1:2, x*DES 0.4, 40°C
  Mole fraction solubility: 0.3695±0.005 mole fraction
[1]; aqueous DES choline chloride + TEG 1:2, x*DES 0.5, 25°C
  Mole fraction solubility: 0.2548±0.0063 mole fraction
[1]; aqueous DES choline chloride + TEG 1:2, x*DES 0.5, 30°C
  Mole fraction solubility: 0.3205±0.0083 mole fraction
[1]; aqueous DES choline chloride + TEG 1:2, x*DES 0.5, 35°C
  Mole fraction solubility: 0.3919±0.0029 mole fraction
[1]; aqueous DES choline chloride + TEG 1:2, x*DES 0.5, 40°C
  Mole fraction solubility: 0.4807±0.0064 mole fraction
[1]; aqueous DES choline chloride + TEG 1:2, x*DES 0.6, 25°C
  Mole fraction solubility: 0.2992±0.0052 mole fraction
[1]; aqueous DES choline chloride + TEG 1:2, x*DES 0.6, 30°C
  Mole fraction solubility: 0.3723±0.0052 mole fraction
[1]; aqueous DES choline chloride + TEG 1:2, x*DES 0.6, 35°C
  Mole fraction solubility: 0.4667±0.0108 mole fraction
[1]; aqueous DES choline chloride + TEG 1:2, x*DES 0.6, 40°C
  Mole fraction solubility: 0.5790±0.0052 mole fraction
[1]; aqueous DES choline chloride + TEG 1:2, x*DES 0.7, 25°C
  Mole fraction solubility: 0.3351±0.0045 mole fraction
[1]; aqueous DES choline chloride + TEG 1:2, x*DES 0.7, 30°C
  Mole fraction solubility: 0.4232±0.0081 mole fraction
[1]; aqueous DES choline chloride + TEG 1:2, x*DES 0.7, 35°C
  Mole fraction solubility: 0.5264±0.0138 mole fraction
[1]; aqueous DES choline chloride + TEG 1:2, x*DES 0.7, 40°C
  Mole fraction solubility: 0.6531±0.0080 mole fraction
[1]; aqueous DES choline chloride + TEG 1:2, x*DES 0.8, 25°C
  Mole fraction solubility: 0.3673±0.0062 mole fraction
[1]; aqueous DES choline chloride + TEG 1:2, x*DES 0.8, 30°C
  Mole fraction solubility: 0.4557±0.0051 mole fraction
[1]; aqueous DES choline chloride + TEG 1:2, x*DES 0.8, 35°C
  Mole fraction solubility: 0.5712±0.0136 mole fraction
[1]; aqueous DES choline chloride + TEG 1:2, x*DES 0.8, 40°C
  Mole fraction solubility: 0.7095±0.0082 mole fraction
[1]; aqueous DES choline chloride + TEG 1:2, x*DES 0.9, 25°C
  Mole fraction solubility: 0.3754±0.0036 mole fraction
[1]; aqueous DES choline chloride + TEG 1:2, x*DES 0.9, 25°C, listed as IP
  Mole fraction solubility: 0.375 mole fraction
[1]; aqueous DES choline chloride + TEG 1:2, x*DES 0.9, 30°C
  Mole fraction solubility: 0.4619±0.0105 mole fraction
[1]; aqueous DES choline chloride + TEG 1:2, x*DES 0.9, 35°C
  Mole fraction solubility: 0.5742±0.0073 mole fraction
[1]; aqueous DES choline chloride + TEG 1:2, x*DES 0.9, 40°C
  Mole fraction solubility: 0.7138±0.0065 mole fraction
